Reference: US20110130449A1, “Assay for Monitoring Activity of Jmjd6” (Isis Innovation Limited, priority 2008, published 2011)
Square brackets hold non-standard residues; d marks the D form. Ends that are not written are not given here. Arg(Me2s) = CN=C(NC)NCCC[C@H](N)C(=O)O

Legend:
Jmjd6 [1] = target: T1, Jmjd6 (Homo sapiens, UniProt Q6NYC1); test: Standard assay for Jmjd6 oxygenase activity: peptide hydroxylation by MALDI-TOF MS; format: biochemical; conditions: for activity (hydroxylation of LUC7-like2 peptides): Table 4, standard assay conditions; for mass shift relative to un-reacted peptide: incubation with Jmjd6, oxygen, ascorbate, Fe(II), 2OG, MALDI-TOF MS
Description: All peptides tested as potential substrates of Jmjd6 were synthesised in-house by a Intavis MultiPep automated multiple synthesiser, using Tentagel amide resin (Intavis). Fluorenylmethoxycarbonyl (Fmoc)-protected amino acids were coupled with N,N′-diisopropylcarbodiimide (DIC)/1-hydroxybenzotriazole (HOBt). Cleavage of the completed peptides from the resin used CF3CO2H (TFA)/[…]. Predicted masses were confirmed by MALDI-TOF mass spectrometry. Standard assay conditions were used and are described above.
To determine whether U2AF65, CROP and LUC7-like2 were substrates of Jmjd6, multiple peptides were synthesized based on the RS domains of these proteins (FIG. 8). Initial peptides were synthesized with dimethylated arginine residues because it was speculated that Jmjd6 may be an arginine demethylase (FIG. 9). To determine whether any of these peptides were Jmjd6 substrates, incubations were carried out in the presence of oxygen, ascorbate, Fe(II) and 2OG; and peptide modifications were analyzed by MALDI-TOF MS.

Jmjd6 [2] = target: T1, Jmjd6; test: biochemical; format: biochemical; conditions: for inhibitory effect on Jmjd6 activity / rank of inhibition of Jmjd6 activity (in words): 100 μM inhibitor, substrate peptide d; for hydroxylation of peptide d, as observed by MALDI: 100 μM compound added to assay; for enhancers of Jmjd6 activity (statement): chelating agents
Experimental: (§1) Standard assays consisted of the substrate mixture: peptide (100 μM), 2OG (500 μM), ascorbate (100 μM) in Tris (50 mM, pH 7.5); and the enzyme mixture: FeNH4SO4 (100 μM) and Jmjd6 (10 μM) in Tris (50 mM, pH 7.5). The reaction was initiated by mixing the substrate and enzyme mixtures and incubating at 37° C. for 30-60 minutes. The reaction was quenched by adding TFA to a final concentration of 0.1% and incubating on ice. Hydroxylation of the peptide was analysed by a MALDI TOF micro MX mass spectrometer (Waters Micromass); where the assay mixture (1 μL), along with α-cyano-4-hydroxycinnamic acid MALDI (CHCA) matrix in 60% acetonitrile/0.1% TFA (1 μL), was spotted directly onto the target plate. To determine whether modification of peptide was Jmjd6-dependent assays were performed omitting either 2OG or Fe(II). To determine whether Jmjd6 was inhibited by N-oxaloylglycine (NOG), NOG (24 mM) was added to the substrate component of the assay system.
To determine the pH profile of Jmd6 standard peptide assays were performed over a pH range of 6 to 9. Buffers used were piperazine-N,N′-bis(ethanesulfonic acid) (PIPES) (pH 6.0 and 6.5), 4-(2-hydroxyethyl)-1-piperazineethanesulfonic acid (HEPES) (pH 7.0 to 8.0) and N,N-bis(2-hydroxyethyl) glycine (BICINE) (pH 8.5 and 9.0). Inhibition assays were performed under identical conditions as described for the standard assays except either succinate (1 mM) or fumarate (1 mM) were included in the substrate mixture.
A control without inhibitor was included as a reference.

[3] = system: full-length Jmjd6 (SEQ ID NO:1), Jmjd6 residues 1 to 343, Jmjd6 residues 25 to 338; conditions: peptide d 100 μM; FIGS. 18 and 19
Experimental: as §1

[4] = succinate (1 mM) or fumarate (1 mM) in substrate mixture

20 (NPKKSKSREHRR) [No 20]
activity (hydroxylation of LUC7-like2 peptides) (Jmjd6 [1]): double

21 (NPKKSKSKEHRR) [No 21]
activity (hydroxylation of LUC7-like2 peptides) (Jmjd6 [1]): double

22 (NPKKSKSKEHKK) [No 22]
activity (hydroxylation of LUC7-like2 peptides) (Jmjd6 [1]): double

23 (NPKRSRSKEHKK) [No 23]
activity (hydroxylation of LUC7-like2 peptides) (Jmjd6 [1]): yes

24 (NPKRSRSREHKK) [No 24]
activity (hydroxylation of LUC7-like2 peptides) (Jmjd6 [1]): yes

O=C(O)c1c[nH]c2c(ccc3cccnc32)c1=O [FG0041]
inhibitory of Jmjd6 lysyl hydroxylase activity (statement) (Jmjd6 [2]): inhibitory
inhibitory effect on Jmjd6 activity (Jmjd6 [2]): ~50%

O=C(O)CNC(=O)c1nc(Cl)c2ccccc2c1O [FG2216]
inhibitory of Jmjd6 lysyl hydroxylase activity (statement) (Jmjd6 [2]): inhibitory
inhibitory effect on Jmjd6 activity (Jmjd6 [2]): ~50%

O=C(O)CNC(=O)C(=O)O [NOG, N-oxalylglycine]
inhibitory of Jmjd6 lysyl hydroxylase activity (statement) (Jmjd6 [2]): inhibitory
inhibition of hydroxylation of peptide d, as observed by MALDI (Jmjd6 [2]; 12 mM NOG in the assay mixture): completely inhibited
inhibition of the +16 mass shift in peptide d (Jmjd6 [2]; NOG 24 mM added to substrate component, FIG. 11 legend 120 mM): completely inhibited
inhibition at 100 µM (Jmjd6 [2]; read-out: inhibitory effect on Jmjd6 activity): < 20%

O=C(O)/C=C/C(=O)O [fumarate]
inhibitory of Jmjd6 lysyl hydroxylase activity (statement) (Jmjd6 [2]): inhibitory
rank of inhibition of Jmjd6 activity (in words) (Jmjd6 [2]): most potent inhibitors
inhibition of the +16 mass shift in peptide d (Jmjd6 [2]; [4]): completely inhibited

O=c1c(-c2ccc(O)cc2)coc2cc(O)cc(O)c12 [genistein]
inhibitory of Jmjd6 lysyl hydroxylase activity (statement) (Jmjd6 [2]): inhibitory

O=C(O)c1ccnc(C(=O)O)c1 [pyridine-2,4-dicarboxylic acid]
inhibitory of Jmjd6 lysyl hydroxylase activity (statement) (Jmjd6 [2]): inhibitory
rank of inhibition of Jmjd6 activity (in words) (Jmjd6 [2]): most potent inhibitors

O=C(O)c1ccc(C(=O)O)nc1 [pyridine-2,5-dicarboxylic acid]
hydroxylation of peptide d, as observed by MALDI (Jmjd6 [2]): 100%
enhancers of Jmjd6 activity (statement) (Jmjd6 [2]): Enhancers

O=C(O)c1cccc(C(=O)O)n1 [pyridine-2,6-dicarboxylic acid]
hydroxylation of peptide d, as observed by MALDI (Jmjd6 [2]): 100%
enhancers of Jmjd6 activity (statement) (Jmjd6 [2]): Enhancers

O=C(O)CCC(=O)O [succinate]
inhibitory of Jmjd6 lysyl hydroxylase activity (statement) (Jmjd6 [2]): inhibitory
rank of inhibition of Jmjd6 activity (in words) (Jmjd6 [2]): most potent inhibitors
inhibition of the +16 mass shift in peptide d (Jmjd6 [2]; [4]): completely inhibited

NPKRSRSR(Me2sym))EHRRHRSR (chain 1 NPKRSRS[Arg(Me2s)]; also: chains 1 and 2 form one continuous peptide) [No 1]
mass shift relative to un-reacted peptide (Jmjd6 [1]): +16

NPKRSRSREHRR [No 12]
hydroxylation of peptide d by truncated and full-length Jmjd6 [3]: hydroxylated

SHSRSR(Me2sym)SRDRKRRSRS ({Ser-H2N-Ser-Arg-Ser-(R(Me2sym))}-SRDRKRRSRS) [No 10]
mass shift relative to un-reacted peptide (Jmjd6 [1]): +16

SHSRSRSR(Me2sym)DRKRRSRS (chain 1 SHSRSRS[Arg(Me2s)]; also: chains 1 and 2 form one continuous peptide) [No 9]
mass shift relative to un-reacted peptide (Jmjd6 [1]): +16
